This is an account of results in patent US20020013295A1, “Naaladase inhibitors for treating amyotrophic lateral sclerosis” (priority 2000, published 2002).

Broadly, the Km is the substrate concentration at which the rate is half of its maximum.

Residues, ends and D or L forms follow the SMILES beside them.

Assay [1] concerns transgenic SOD mice. As to the kind of experiment: Effect of NAALADase inhibitor on onset of clinical disease, transgenic mice model of FALS. The following applies: for Disease onset for compound treated mice: 50 mg/kg, from one month old. In kind it is in vivo. On the procedure:
The effect of NAALADase inhibitors on the onset of ALS was tested using the transgenic mice model of familial amyotrophic lateral sclerosis (FALS), which is detailed in Gurney, M., Annals of Neurology (1996) 39:147-157, and otherwise well known in the art. One month old transgenic SOD mice were treated with daily intraperitoneal injections of a vehicle (50 mM HEPES-buffered saline) or a NAALADase inhibitor (50 mg/kg 2-[[(2,3,4,5,6-pentafluorobenzyl)hydroxyphosphinyl]methyl]-pentanedioic acid (“Compound A” )). Clinical symptoms of the mice were monitored daily. The onset of clinical disease was scored by examining each mouse for its shaking of limbs when suspended in the air by its tail, cross spread of spinal reflexes, hindlimb paralysis, body weight and wheel running activity.

For assay [2], the target named is NAALADase (Rattus norvegicus, UniProt P70627). The following applies: NAAG as substrate of NAALADase; cited from earlier work.
Chain of NAALADase (P70627 whole entry): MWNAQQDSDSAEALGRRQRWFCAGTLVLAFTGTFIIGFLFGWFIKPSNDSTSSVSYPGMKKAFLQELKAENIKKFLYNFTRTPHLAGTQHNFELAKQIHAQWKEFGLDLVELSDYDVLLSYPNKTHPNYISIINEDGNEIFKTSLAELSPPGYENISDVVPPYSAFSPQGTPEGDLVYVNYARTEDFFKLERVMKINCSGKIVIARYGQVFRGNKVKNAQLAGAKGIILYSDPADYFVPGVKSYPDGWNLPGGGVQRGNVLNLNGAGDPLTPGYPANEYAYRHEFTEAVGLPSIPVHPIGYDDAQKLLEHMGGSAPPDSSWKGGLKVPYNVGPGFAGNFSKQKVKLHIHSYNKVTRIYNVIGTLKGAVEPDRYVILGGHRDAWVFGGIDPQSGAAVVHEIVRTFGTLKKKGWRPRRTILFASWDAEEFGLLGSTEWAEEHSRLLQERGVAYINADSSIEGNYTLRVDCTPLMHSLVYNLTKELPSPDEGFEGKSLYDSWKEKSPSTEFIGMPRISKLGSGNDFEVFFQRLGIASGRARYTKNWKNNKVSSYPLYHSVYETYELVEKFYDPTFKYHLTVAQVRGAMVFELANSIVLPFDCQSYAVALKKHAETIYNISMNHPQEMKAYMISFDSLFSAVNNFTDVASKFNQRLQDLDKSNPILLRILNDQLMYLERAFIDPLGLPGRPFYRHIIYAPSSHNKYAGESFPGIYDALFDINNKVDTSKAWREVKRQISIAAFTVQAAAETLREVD

Turning to `O=C(O)CCC(CCCS)C(=O)O` (centres unmarked) [Compound B, 2-(3-sulfanylpropyl)pentanedioic acid], the “Difference in disease onset, compound treated vs vehicle treated mice” value in assay [1] (Study 1) was 32; in assay [1] (Study 2), 25. Moreover, the “Disease onset for compound treated mice” value in assay [1] (Study 1, daily intraperitoneal injections) is 221 days of age; in assay [1] (Study 2, daily intraperitoneal injections), 166 days of age.
`CC(=O)N[C@@H](CC(=O)O)C(=O)N[C@@H](CCC(=O)O)C(=O)O` [NAAG, N-acetyl-aspartyl-glutamate] (Ac-Asp-Glu-OH): the Km in assay [2] is 540 nM.
